From US11953501B2, “Compositions and methods to detect gastrointestinal disease” (The Board of Supervisors of Louisiana State University and …, priority 2016, dated 2024)
Where two headings read alike, the source gives them in different places.

Biological target: T1, intestinal alkaline phosphatase (iAP) (Homo sapiens, UniProt P09923)
T1 construct: The supernatant contained proteins secreted in the gut lumen, on which our analysis is focused; from tissue; host or cells: stool supernatant (200 mg/mL slurry in water, centrifuged) from human preterm infants
T1 sequence (P09923 20-503 limits assumed): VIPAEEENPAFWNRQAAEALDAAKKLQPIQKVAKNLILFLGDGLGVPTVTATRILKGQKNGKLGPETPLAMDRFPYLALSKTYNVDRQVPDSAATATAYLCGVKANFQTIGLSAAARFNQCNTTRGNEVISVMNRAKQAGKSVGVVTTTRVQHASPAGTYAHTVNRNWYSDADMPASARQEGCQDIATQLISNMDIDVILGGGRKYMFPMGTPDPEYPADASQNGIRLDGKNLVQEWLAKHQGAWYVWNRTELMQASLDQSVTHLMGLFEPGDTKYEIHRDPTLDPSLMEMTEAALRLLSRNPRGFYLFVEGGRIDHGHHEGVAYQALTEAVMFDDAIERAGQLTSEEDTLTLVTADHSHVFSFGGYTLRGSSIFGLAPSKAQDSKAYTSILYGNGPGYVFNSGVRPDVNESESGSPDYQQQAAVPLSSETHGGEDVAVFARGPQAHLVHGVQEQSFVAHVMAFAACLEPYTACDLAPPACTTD
Assay: Fecal iAP catalytic activity, 4-methylumbelliferyl phosphate (MUP) fluorometric assay with and without L-phenylalanine
Format: biochemical
Details: 10 mM L-Phe, spread is SD, read-out: inhibition of AP activity by L-Phe
Procedure: Fecal iAP catalytic activity: Alkaline phosphatase activity was measured with use of 4-methylumbelliferyl phosphate (MUP) as a fluorescent substrate (Abcam, ab83371) in the presence and absence of L-phenylalanine, an inhibitor of iAP. Relative fluorescence units (RFUs) at 360/440 nm were measured using a Spectra Max M2e spectrophotometer (Molecular Devices, Sunnyvale, CA). Ninety-six-well black optical bottom plates were used. Standards and negative controls were prepared for each plate run. Total AP activity was determined as: AP activity (mU/mL)=(B×dilution factor)/(T×V), in which B is nmol of product; V is volume of sample added to the well; T is reaction time; and U is the amount of enzyme causing hydrolysis of 1 μmol of MUP per minute at pH 10.0 and 25° C. […]
Fecal iAP Activity—Alkaline phosphatase activity was ascertained with the use of 4-methylumbelliferyl phosphate as a fluorescent substrate ab83371 (Abeam). […] Relative fluorescence units (RFUs) at 360/440 nm wavelengths were measured using a Spectra Max M2e spectrophotometer (Molecular Devices, Sunnyvale, CA). […] Reaction wells for samples, standards and negative background controls were prepared each time the assay was performed and total alkaline phosphatase activity was determined using: ALP activity (mU/ml)=(B/T)/V x dilution factor […]

inhibition at 10000 µM (stool samples from NEC patients): 90% | inhibition at 10000 µM (stool samples from control patients): 91%
Structure (SMILES): N[C@@H](Cc1ccccc1)C(=O)O [L-Phe, L-phenylalanine]
